# From US20240400986A1, “MEMBRANE BOUND COMPOSITIONS AND METHODS RELATING TO SAME” (FLAGSHIP PIONEERING INNOVATIONS VII, LLC, priority 2021, published 2024)
# Where two headings read alike, the source gives them in different places.
# Columns and labels:
# [1] = tested on: neuronal cell line derived from human neuroblastoma; assay: Small molecule compound screen of gigasome production in neuronal monocultures; settings: for Number of Gigasomes Produced / Fold Change of Gigasomes Produced vs. DMSO / downregulation of gigasome production: neuronal cells; for Number of Gigasomes Produced / Fold Change of Gigasomes Produced vs. DMSO: 24 hours; for downregulation of gigasome production: doses 10-10,000 nM
# [2] = tested on: neuronal cell line derived from human neuroblastoma; settings: neuronal cells, 24 hours
# Method: For the screening, a total of 99 compounds (TargetMol) were divided in 5 groups. Each group included an untreated condition, a vehicular DMSO control, and a known high-gigasome producing condition to comparatively study gigasome production rates. As a cell death control group, 500 nM Staurosporine was added to induce apoptosis. Cultures were incubated for 24 hours under gigasome inducing conditions at concentrations ranging between 10 nM and 10,000 nM. Before the end of the treatment, live neuronal cultures were imaged. The Zeiss ZEN Blue software was used to distribute imaging fields of view (positions) to create an unbiased imaging sample of a well. 5 images were taken using a Zeiss LSM 900 confocal microscope. […] The BioApps ZEN software package was used to perform cell nucleus segmentation and counting. After 24 hours, gigasomes were harvested from the cell culture media by gently removing from the top of each 96-well ⅔ of the total volume without disturbing the cell layer (containing the settled gigasomes) and by adding to each well the same amount of PBS. […] Cells remaining in the 96-well plates were assessed for viability using CellTiter-Glo (Promega).
# [3] = tested on: cardiomyocytic cell line derived from human ventricular heart tissue; assay: Small molecule compound screen of gigasome production in cardiomyocytic monocultures; settings: for downregulation of gigasome production: doses 10-10,000 nM, 24 h;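 as to all read-outs here: gigasomes shed into the culture medium were imaged by confocal microscopy and counted as round particles lacking nuclear signal, extrapolated to the whole well, fold change is relative to DMSO vehicle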
# [4] = Homo sapiens, 24 h, read-out: Fold Change of Gigasomes Produced vs. DMSO
# [5] = Table 23 (down-regulators), dose 10 nM, cardiomyocytes
# [6] = Table 23 (down-regulators), dose 100 nM, cardiomyocytes
# [7] = Table 23 (down-regulators), dose 1000 nM, cardiomyocytes
# [8] = Table 23 (down-regulators), dose 10000 nM, cardiomyocytes
# [9] = Table 22, dose 1000 nM, cardiomyocytes, 24 hours
# [10] = Table 22, dose 10000 nM, cardiomyocytes, 24 hours
# [11] = Table 22, dose 10 nM, cardiomyocytes, 24 hours
# [12] = Table 22, dose 100 nM, cardiomyocytes, 24 hours
smiles,measurement,setting,value
CC(=O)c1cc2c(o1)C(=O)c1ccccc1C2=O [Napabucasin],fold induction at 0.01 µM,[1]; [4],1 to 1.25
same,fold induction at 0.1 µM,[1]; [4],1.5 to 1.75
same,Number of Gigasomes Produced,[1]; dose 10 nM,35-45
same,Number of Gigasomes Produced,[1]; dose 100 nM,45-55
same,Viability,[2]; dose 10 nM,100%
same,Viability,[2]; dose 100 nM,100%
"COC(=O)c1ccccc1NC(=O)c1ccc(F)cc1 [EXO1, reference compound]",Fold Change of Gigasomes Produced vs. DMSO,[1]; dose 10 nM,0.75-1.0
same,Number of Gigasomes Produced,[1]; dose 10 nM,35-40
same,Fold Change of Gigasomes Produced vs. DMSO,[1]; dose 100 nM,0.5-0.75
same,Number of Gigasomes Produced,[1]; dose 100 nM,20-25
same,Fold Change of Gigasomes Produced vs. DMSO,[1]; dose 1000 nM,0.25-0.5
same,Number of Gigasomes Produced,[1]; dose 1000 nM,10-15
same,Fold Change of Gigasomes Produced vs. DMSO,[1]; dose 10000 nM,0.25-0.5
same,Number of Gigasomes Produced,[1]; dose 10000 nM,10-15
same,downregulation of gigasome production,[1]; 24 h,dose-dependent downregulation
same,Viability,[2]; dose 10 nM,100%
same,Viability,[2]; dose 100 nM,100%
same,Viability,[2]; dose 1000 nM,100%
same,Viability,[2]; dose 10000 nM,100%
O=C(Nc1ccc(O)c(C(=O)O)c1)c1cccc(NC(=O)c2ccco2)c1 [OSS_128167],Fold Change of Gigasomes Produced vs. DMSO,[1]; dose 10000 nM,0.5-0.75
same,Number of Gigasomes Produced,[1]; dose 10000 nM,20-25
same,Viability,[2]; dose 10000 nM,100%
COC(=O)C1=C(C)NC(C)=C([N+](=O)[O-])C1c1ccccc1C(F)(F)F (stereo not drawn) [Bay K 8644],Fold Change of Gigasomes Produced vs. DMSO,[1]; dose 10 nM,1.25-1.5
same,Number of Gigasomes Produced,[1]; dose 10 nM,35-45
same,Fold Change of Gigasomes Produced vs. DMSO,[1]; dose 100 nM,1.25-1.5
same,Number of Gigasomes Produced,[1]; dose 100 nM,35-45
same,Fold Change of Gigasomes Produced vs. DMSO,[1]; dose 1000 nM,1.25-1.5
same,Number of Gigasomes Produced,[1]; dose 1000 nM,35-45
same,Fold Change of Gigasomes Produced vs. DMSO,[3]; [5],0.75-1.0
same,Number of Gigasomes Produced,[3]; [5],>150
same,Fold Change of Gigasomes Produced vs. DMSO,[3]; [6],0.5-0.75
same,Number of Gigasomes Produced,[3]; [6],120-135
same,Fold Change of Gigasomes Produced vs. DMSO,[3]; [7],0.75-1.0
same,Number of Gigasomes Produced,[3]; [7],105-120
same,Fold Change of Gigasomes Produced vs. DMSO,[3]; [8],0.25-0.5
same,Number of Gigasomes Produced,[3]; [8],75-90
CCCCc1ccc(NC(C)=O)c(C)c1 [SMIP004],Fold Change of Gigasomes Produced vs. DMSO,[1]; dose 10 nM,>1.25
same,Number of Gigasomes Produced,[1]; dose 10 nM,>40
same,Fold Change of Gigasomes Produced vs. DMSO,[1]; dose 100 nM,0.75-1.0
same,Number of Gigasomes Produced,[1]; dose 100 nM,35-40
same,Fold Change of Gigasomes Produced vs. DMSO,[1]; dose 1000 nM,0.75-1.0
same,Number of Gigasomes Produced,[1]; dose 1000 nM,30-35
same,Fold Change of Gigasomes Produced vs. DMSO,[1]; dose 10000 nM,0.75-1.0
same,Number of Gigasomes Produced,[1]; dose 10000 nM,30-35
same,Fold Change of Gigasomes Produced vs. DMSO,[3]; [9],1.0-1.25
same,Number of Gigasomes Produced,[3]; [9],150-175
same,Fold Change of Gigasomes Produced vs. DMSO,[3]; [10],1.25-1.5
same,Number of Gigasomes Produced,[3]; [10],175-200
C[C@H](NC(=O)Cc1cc(F)cc(F)c1)C(=O)N[C@H](C(=O)OC(C)(C)C)c1ccccc1 [DAPT],Fold Change of Gigasomes Produced vs. DMSO,[3]; [11],1.0-1.25
same,Number of Gigasomes Produced,[3]; [11],200-225
same,Fold Change of Gigasomes Produced vs. DMSO,[3]; [12],1.25-1.5
same,Number of Gigasomes Produced,[3]; [12],250-275
O=C(Nc1ccccc1-c1cn2c(CN3CCNCC3)csc2n1)c1cnc2ccccc2n1 [SRT 1720],Fold Change of Gigasomes Produced vs. DMSO,[3]; [9],1.0-1.25
same,Number of Gigasomes Produced,[3]; [9],150-175
"O=C(/C=C/c1ccc(/C=C/C(=O)Nc2ccc(C3=NCCN3)cc2)cc1)Nc1ccc(C2=NCCN2)cc1 [GW4869, reference compound]",Number of Gigasomes Produced,[1]; dose 10 nM,30-35
same,Fold Change of Gigasomes Produced vs. DMSO,[1]; dose 100 nM,0.75-1.0
same,Number of Gigasomes Produced,[1]; dose 100 nM,35-40
same,Fold Change of Gigasomes Produced vs. DMSO,[1]; dose 1000 nM,0.25-0.5
same,Number of Gigasomes Produced,[1]; dose 1000 nM,15-20
same,Fold Change of Gigasomes Produced vs. DMSO,[1]; dose 10000 nM,0.25-0.5
same,Number of Gigasomes Produced,[1]; dose 10000 nM,5-10
same,downregulation of gigasome production,[1]; 24 h,dose-dependent downregulation
NC(=O)C1CCCc2c1[nH]c1ccc(Cl)cc21 (stereo not drawn) [Selisistat],Fold Change of Gigasomes Produced vs. DMSO,[3],1.25-1.5
same,Number of Gigasomes Produced,[3]; [11],150-175
"O=C(Oc1cccc(F)c1OC(=O)c1cccc(O)c1)c1cccc(O)c1 [WZB117, reference compound]",Fold Change of Gigasomes Produced vs. DMSO,[3]; [5],1.0-1.25
same,Number of Gigasomes Produced,[3]; [5],120-135
same,Fold Change of Gigasomes Produced vs. DMSO,[3]; [6],0.75-1.0
same,Number of Gigasomes Produced,[3]; [6],105-120
same,Fold Change of Gigasomes Produced vs. DMSO,[3]; [7],0.75-1.0
same,Number of Gigasomes Produced,[3]; [7],105-120
same,Fold Change of Gigasomes Produced vs. DMSO,[3]; [8],0.25-0.5
same,Number of Gigasomes Produced,[3]; [8],35-50
same,downregulation of gigasome production,[3]; cardiomyocytes,dose-dependent downregulation
"O=C1CSC(c2ccccc2Cl)c2cc(Cl)ccc2N1 (stereo not drawn) [CGP37157, reference compound]",Fold Change of Gigasomes Produced vs. DMSO,[3]; [5],0.75-1.0
same,Number of Gigasomes Produced,[3]; [5],120-135
same,Fold Change of Gigasomes Produced vs. DMSO,[3]; [6],0.75-1.0
same,Number of Gigasomes Produced,[3]; [6],105-120
same,Fold Change of Gigasomes Produced vs. DMSO,[3]; [7],0.25-0.5
same,Number of Gigasomes Produced,[3]; [7],50-75
same,Fold Change of Gigasomes Produced vs. DMSO,[3]; [8],0.25-0.5
same,Number of Gigasomes Produced,[3]; [8],50-75
same,downregulation of gigasome production,[3]; cardiomyocytes,dose-dependent downregulation
CCC(C)(C)C(=O)O[C@H]1C[C@@H](C)C=C2C=C[C@H](C)[C@H](CC[C@@H]3C[C@@H](O)CC(=O)O3)[C@H]21 [Simvastatin],Number of Gigasomes Produced,[1]; dose 100 nM,<35
same,Number of Gigasomes Produced,[1]; dose 1000 nM,35-45
same,Number of Gigasomes Produced,[1]; dose 10000 nM,45-55
"COc1ccc(S(=O)(=O)N(CCO)c2ccccc2CN(C)C/C=C/c2ccc(Cl)cc2)cc1 [KN-93, reference compound]",Fold Change of Gigasomes Produced vs. DMSO,[3]; [11],1.25-1.5
same,Number of Gigasomes Produced,[3]; [11],225-250
same,Fold Change of Gigasomes Produced vs. DMSO,[3]; [9],1.25-1.5
same,Number of Gigasomes Produced,[3]; [9],250-275
same,Fold Change of Gigasomes Produced vs. DMSO,[3]; [10],1.5-1.75
same,Number of Gigasomes Produced,[3]; [10],250-275
Fc1ccc(CNc2ncnc3ccc(F)cc23)cc1 [Spautin-1],Fold Change of Gigasomes Produced vs. DMSO,[3]; [5],0.75-1.0
same,Number of Gigasomes Produced,[3]; [5],105-120
same,Fold Change of Gigasomes Produced vs. DMSO,[3]; [6],0.75-1.0
same,Number of Gigasomes Produced,[3]; [6],120-135
same,Fold Change of Gigasomes Produced vs. DMSO,[3]; [7],0.5-0.75
same,Number of Gigasomes Produced,[3]; [7],90-105
same,Fold Change of Gigasomes Produced vs. DMSO,[3]; [8],0.5-0.75
same,Number of Gigasomes Produced,[3]; [8],75-90
